Here are results for 20 compounds from patent US6194416A, “Heterocyclic compounds and their use” (Eli Lilly and Company, priority 1997, dated 2001).

Assay [1] addresses muscarinic acetylcholine receptors. The assay is described as follows: Inhibition of specific binding of 3H-Oxotremorine-M (3H-Oxo) to rat cortex membranes. More on the design: species or system male Wistar rats. To be noted: 1.0 nM 3H-Oxotremorine, 30 min, 25° C., pH 7.4. The text has this: The pharmacological properties of the compounds of the invention can be illustrated by determining their capability to inhibit the specific binding of ^3 H-Oxotremorine-M (^3 H-Oxo). Birdsdall N. J. M., Hulme E. C., and Burgen A. S. V. (1980). "The Character of Muscarinic Receptors in Different Regions of the Rat Brain". Proc. Roy. Soc. London (Series B) 207,1.
^3 H-Oxo labels muscarinic receptor in the CNS (with a preference for agonist domains of the receptors). Three different sites are labeled by ^3 H-Oxo. […] Using the present experimental conditions only the high and medium affinity sites are determined.
The inhibitory effects of compounds on ^3 H-oxo binding reflects the affinity for muscarinic acetylcholine receptors.
All preparations are performed at 0-4° C. unless otherwise indicated. Fresh cortex (0.1-1 g) from male Wistar rats (150-250 g) is homogenized for 5-10 s in 10 mL […] Hepes pH: 7.4, with an Ultra-Turrax homogenizer. The homogenizer is rinsed with 10 mL of buffer and the combined suspension centrifuged for 15 min. at 40,000×g. The pellet is washed three times with buffer. In each step the pellet is homogenized as before in 2×10 mL of buffer and centrifuged for 10 min. at 40,000×g.
The final pellet is homogenized in 20 mM Hepes pH: 7.4 (100 mL per g of original tissue) and used for binding assay. Aliquots of 0.5 mL is added 25 μL of test solution and 25 μL of ^3 H-Oxotremorine (1.0 nM, final concentration) mixed and incubated for 30 min. at 25° C. Non-specific binding is determined in triplicate using arecoline (1 μg/mL, final concentration) as the test substance. After incubation samples are added 5 mL of ice-cold buffer and poured directly onto Whatman GF/C glass fiber filters under suction and immediately washed 2 times with 5 mL of ice-cold buffer. The amount of radioactivity on the filters are determined by conventional liquid scintillation counting. Specific binding is total binding minus non specific binding.
Test substances are dissolved in 10 mL water (if necessary heated on a steam-bath for less than 5 min.) at a concentration of 2.2 mg/mL. 25-75% inhibition of specific binding must be obtained before calculation of IC50. The test value will be given as IC50 (the concentration (nM) of the test substance which inhibits the specific binding of ^3 H-oxo by 50%). IC50 =(applied test substance concentration) x([…])nM where Co is specific binding in control assays and Cx is the specific binding in the test assay. (The calculations assume normal mass-action kinetics).

The target of assay [2] is T1, muscarinic receptors (M1-site, pirenzepine sensitive site) (Rattus norvegicus, UniProt P08482).
T1 construct: from tissue; host or cells: cerebral cortex membranes of male Wistar rats
T1 sequence (P08482 1-460): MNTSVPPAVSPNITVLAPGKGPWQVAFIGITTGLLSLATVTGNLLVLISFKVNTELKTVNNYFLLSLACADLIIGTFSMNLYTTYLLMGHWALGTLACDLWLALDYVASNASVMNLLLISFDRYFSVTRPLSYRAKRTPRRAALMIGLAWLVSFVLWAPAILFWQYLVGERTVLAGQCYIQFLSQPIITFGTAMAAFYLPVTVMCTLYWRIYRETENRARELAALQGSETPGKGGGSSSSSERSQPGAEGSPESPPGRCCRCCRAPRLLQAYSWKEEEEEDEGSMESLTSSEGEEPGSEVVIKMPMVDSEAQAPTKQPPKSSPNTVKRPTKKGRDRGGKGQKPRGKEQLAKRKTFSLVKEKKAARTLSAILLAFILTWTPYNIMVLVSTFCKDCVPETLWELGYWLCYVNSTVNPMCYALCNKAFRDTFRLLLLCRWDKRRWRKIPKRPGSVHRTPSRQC
Kind of assay: Inhibition of 3HPRZ (pirenzepine, [N-methyl-3H]) binding to rat cerebral cortex membranes. The arrangement: species or system male Wistar rats. On the procedure: Furthermore the pharmacological properties of the compounds of the invention can also be illustrated by determining their capability to inhibit ^3 HPRZ (pirenzepine, [N-methyl-^3 H]) binding to rat cerebral cortex membranes.
Pirenzepine binds selectively to subtype of muscarinic receptors. Historically the type is named the M1 -site, whereas pirenzepine sensitive site would be more appropriate.
All preparations are performed at 0-4° C. unless otherwise indicated. Fresh cortex ([…]) from male Wistar rats (150-200 g) is homogenized for 5-10 s in 10 mL 20 mM Hepes pH: 7.4, with an Ultra-Turrax homogenizer. The homogenizer is rinsed with 2×10 mL of buffer and the combined suspension centrifuged for 15 min. at 40,000×g. The pellet is washed three times with buffer. In each step the pellet is homogenized as before in 3×10 mL of buffer and centrifuged for 10 min. at 40,000×g.
The final pellet is homogenized in 20 MM Hepes pH: 7.4 (100 mL per g of original tissue) and used for binding assay. Aliquots of 0.5 mL is added 20 μL of test solution and 25 μL of ^3 HPRZ (1.0 nM, final conc.), mixed and incubated for 60 min. at 20° C. Non-specific binding is determined in triplicate using atropine (1.0 μg/mL, final conc.) as the test substance. After incubation samples are added 5 mL of ice-cold buffer and poured directly onto Whatman GF/C glass fiber filters under suction and immediately washed 2 times with 5 mL of ice-cold buffer.
The amount of radioactivity on the filters are determined by conventional liquid scintillation counting. Specific binding is total binding minus non-specific binding.
Test substances are dissolved in 10 mL water, at a concentration of 0.22 mg/mL. 25-75% inhibition of specific binding must be obtained before calculation of IC50.
The test value will be given as IC50 (the concentration (nM) of the test substance which inhibits the specific binding of ^3 HPRZ by 50%). IC50 =(applied test substance concentration) x(Cx /Co -Cx)nM where Co is specific binding in control assays and Cx is the specific binding in the test assay. (The calculations assume normal mass-action kinetics).

The target of another assay is nicotinic receptors. Kind of assay: Nicotinic channel receptor binding: [3H]-cystine binding to crude synaptic membranes from whole rat brain. Conditions: 1.25 nM [3H-cystine], about 60 min, about 4° C. Here is the method:
Nicotinic Channel Receptor Binding Protocol:
The activity of the compounds claimed herein at the nicotinic receptor can be accomplished by the following assay.
Binding of […] to nicotinic receptors was accomplished using crude synaptic membrane preparations from whole rat brain (Pabreza et al. Molecular Pharmacol., 1990, 39:9). Washed membranes were stored at about -80° C. prior to use. Frozen aliquots were slowly thawed and resuspended in 20 volumes of buffer (containing: […] NaCl, 5 mM KCl, 2 mM MgCl2, 2 mM Tris-Cl, ph 7.4 @4° C.). After centrifuging at 20,000×g for 15 minutes, the pellets were resuspended in about 30 volumes of buffer. Homogenate (containing about 125-150 ug protein) was added to tubes containing concentrations of test compound and [^3 H-cystine] (1.25 nM) in a final volume of 500 uL. Samples were incubated for about 60 minutes at about 4° C., then rapidly filtered through GF/B filters presoaked in 0.5% polyethylimine using 3×4 mL of ice cold buffer. The filters were counted.

Setting [3] is: rat cerebral cortex, 1.0 nM 3HPRZ, 60 min, 20° C., pH 7.4, read-out: 3HPRZ IC50.

Read-outs that look alike come from different tables or passages of the source.

A word on the IC50: it is the concentration at which inhibition is half-maximal. The term Ki denotes a measure of affinity in units of concentration, obtained from inhibition or displacement. A lower Ki goes with a stronger hold on the target.

Regarding `CCCCOc1nccnc1O[C@@H]1CN2CCC[C@H]1C2` (relative stereo) [Compound 23, 3-(1-butyloxy)-2-[endo-(+,-)-6-(1-azabicyclo[3.2.1]octyloxy)]-pyrazine], the concentration for half-maximal inhibition (IC50) in assay [1] worked out at 4.9 nM; in assay [2], 2.7 nM.

Regarding `CCSc1nccnc1O[C@@H]1CN2CCC[C@H]1C2` (relative stereo) [Compound 32, (±)-endo-2-Ethylthio-3-(1-azabicyclo[3.2.1]octyl-6-oxy)pyrazine], the IC50 in assay [1] turned out to be 3.9 nM; in assay [2] (setting [3]), 4 nM.

For `CC(C)CSc1nccnc1O[C@@H]1CN2CCC[C@H]1C2` (relative stereo) [Compound 31, (±)-endo-2-(2-Methylpropylthio)-3-(1-azabicyclo[3.2. 1]octyl-6-oxy)pyrazine], the IC50 was found to be 3.4 nM in assay [1] and 1.7 nM in assay [2] (setting [3]).

Consider `CCCCSc1nccnc1OCCN(C)C` [Compound 17], for which the inhibition constant (Ki) on nicotinic receptors is 21400 nM.

On to `C/C=C/CSc1nccnc1O[C@@H]1CN2CCC[C@H]1C2` (relative stereo) [Compound 34, (±)-endo-2-(trans-2-Butenylthio)-3-(1-azabicyclo[3.2. 1]octyl-6-oxy)pyrazine], for which the 50% inhibitory concentration (IC50) came out at 2 nM in assay [1] and 0.66 nM in assay [2] (setting [3]).

Take `CCCSc1cncc(O[C@@H]2CN3CCC[C@H]2C3)n1` (relative stereo) [Compound 39, (±)-endo-2-Propylthio-6-(1-azabicyclo[3.2.1]octyl-6-oxy)pyrazine]: the 50% inhibitory concentration (IC50) in assay [1] came to 10 nM; in assay [2] (setting [3]), 80 nM.

With `FC(F)(F)CSc1cncc(O[C@@H]2CN3CCC[C@H]2C3)n1` (relative stereo) [Compound 40, (±)-endo-2-(2.2.2-Trifluoroethylthio)-6-(1-azabicyclo[3.2. 1]octyl-6-oxy)pyrazine], the IC50 in assay [1] was determined as 60 nM; in assay [2] (setting [3]), 17 nM.

Regarding `CC(C)CCSc1nccnc1O[C@@H]1CN2CCC[C@H]1C2` (relative stereo) [Compound 37, (±)-endo-2-(3-Methylbutylthio)-3-(1-azabicyclo[3.2. 1]octyl-6-oxy)pyrazine], the results for the IC50 in assay [1] and in assay [2] (setting [3]) were 1.3 nM and 0.76 nM, respectively.

For `CCCCCSc1nccnc1O[C@@H]1CN2CCC[C@H]1C2` (relative stereo) [Compound 30, (±)-endo-2-Pentylthio-3-(1-azabicyclo[3.2.1]octyl-6-oxy)pyrazine], the half-inhibitory concentration (IC50) in assay [1] was 4.4 nM; in assay [2] (setting [3]), 0.82 nM.

Turning to `FC(F)(F)Oc1ccc(CSc2nccnc2O[C@@H]2CN3CCC[C@H]2C3)cc1` (relative stereo) [Compound 38, (±)-endo-2-(4-Trifluoromethoxybenzylthio)-3-(1-azabicyclo[3.2. 1]octyl-6-oxy)pyrazine], the IC50 in assay [1] came out at 6.2 nM; in assay [2] (setting [3]), 3.3 nM.

`C[N+](C)(C)CCOc1cnccn1` [Compound 27, 2-(2-Trimethylaminoethoxy)pyrazine iodide] returned a Ki at nicotinic receptors of 110 nM.

As for `FC(F)(F)CSc1nccnc1O[C@@H]1CN2CCC[C@H]1C2` (relative stereo) [Compound 33, (±)-endo-2-(2,2,2,-Trifluoroethylthio)-3-(1-azabicyclo[3.2. 1]octyl-6-oxy)pyrazine], the results for the half-inhibitory concentration (IC50) in assay [1] and in assay [2] (setting [3]) were 1.5 nM and 0.7 nM, respectively.

As for `C=CCSc1nccnc1O[C@@H]1CN2CCC[C@H]1C2` (relative stereo) [Compound 36, (±)-endo-2-(2-propenylthio)-3-(1-azabicyclo[3.2.1]octyl-6-oxy)pyrazine], the IC50 in assay [1] was found to be 0.34 nM; in assay [2] (setting [3]), 5.8 nM.

Compound `CN(C)CCOc1cnccn1` [Compound 26, 2-(2-Dimethylaminoethoxy)pyrazine] gave an inhibition constant Ki at nicotinic receptors of 130 nM.

In the case of `FC(F)(F)CCCSc1nccnc1O[C@@H]1CN2CCC[C@H]1C2` (relative stereo) [Compound 35, (±)-endo-2-(4,4,4-Trifluorobutylthio)-3-(1-azabicyclo[3.2. 1]octyl-6-oxy)pyrazine], the concentration for half-maximal inhibition (IC50) in assay [1] stood at 3.2 nM; in assay [2] (setting [3]), 0.54 nM.

As to `CCCSc1nccnc1O[C@@H]1CN2CCC[C@H]1C2` (relative stereo) [Compound 29, (±)-endo-2-Propylthio-3-(1-azabicyclo[3.2.1]octyl-6-oxy)pyrazine], the IC50 in assay [1] came out at 1.7 nM; in assay [2] (setting [3]), 0.68 nM.

Regarding `COCCSc1nccnc1O[C@@H]1CN2CCC[C@H]1C2` (relative stereo) [Compound 41, (±)-endo-2-(2-Methoxyethylthio)-3-(1-azabicyclo[3.2. 1]octyl-6-oxy)pyrazine], the half-inhibitory concentration (IC50) in assay [1] was determined as 3.2 nM; in assay [2] (setting [3]) it was 1.6 nM.

`CC(C)=CCCSc1nccnc1O[C@@H]1CN2CCC[C@H]1C2` (relative stereo) [Compound 43, (±)-endo-2-(4-Methyl-3-pentenylthio)-3-(1-azabicyclo[3.2. 1]octyl-6-oxy)pyrazine]: the IC50 in assay [1] was 8.1 nM; in assay [2] (setting [3]) it was 2.2 nM.

For `C(=Cc1ccccc1)CSc1nccnc1O[C@@H]1CN2CCC[C@H]1C2` (relative stereo) [Compound 42, (±)-endo-2-(3-Phenyl-2-propenylthio)-3-(1-azabicyclo[3.2. 1]octyl-6-oxy)pyrazine], the values for the IC50 in assay [1] and in assay [2] (setting [3]) were 9.1 nM and 4.8 nM, respectively.

As for `CCCCSc1nccnc1O[C@@H]1CN2CCC[C@H]1C2` (relative stereo) [Compound 24, 3-(1-butylthio)-2-[endo-(+,-)-6-(1-azabicyclo[3.2.1]octyloxy)]-pyrazine], the IC50 in assay [1] was 2.2 nM; in assay [2] (setting [3]) it was 0.54 nM.
